Assay results taken from ChEMBL document CHEMBL1131978, “3D QSAR studies on new oxazolidinone antibacterial agents by comparative molecular field analysis” (Bioorg Med Chem Lett, 1999).
Converted amounts (≈) assume the structure as drawn.

Test system: Staphylococcus aureus
Test: In vitro antibacterial activity against the methicillin-resistant Staphylococcus aureus 88
Assay type: functional

SMILES	Log 1/MIC	MIC
COc1cc(CN2CCN(c3ccc(N4C[C@H](CNC(C)=O)OC4=O)cc3F)CC2)on1	-0.49	3.12 µg/mL (≈ 6.97 µM)
CC(=O)NC[C@H]1CN(c2ccc(N3CCN(C(=O)c4cc(-c5nccs5)no4)CC3)c(F)c2)C(=O)O1	0.41	0.39 µg/mL (≈ 0.758 µM)
CC(=O)NC[C@H]1CN(c2ccc(N3CCN(C(=O)c4cc(COC(=O)N(C)C)no4)CC3)c(F)c2)C(=O)O1	-0.49	3.12 µg/mL (≈ 5.86 µM)
CC(=O)NC[C@H]1CN(c2ccc(N3CCN(Cc4cc(-c5ccc(C#N)cc5)no4)CC3)c(F)c2)C(=O)O1	-0.8	6.25 µg/mL (≈ 12.1 µM)
CC(=O)NC[C@H]1CN(c2ccc(N3CCN(C(=O)c4ccno4)CC3)c(F)c2)C(=O)O1	-0.19	1.56 µg/mL (≈ 3.62 µM)
CC(=O)NC[C@H]1CN(c2ccc(N3CCOCC3)c(F)c2)C(=O)O1 [LINEZOLID]		1.56 µg/mL (≈ 4.62 µM)
CC(=O)NC[C@H]1CN(c2ccc(N3CCN(C(=O)c4cc(OCCF)no4)CC3)c(F)c2)C(=O)O1	-0.19	1.56 µg/mL (≈ 3.16 µM)
CC(=O)NC[C@H]1CN(c2ccc(N3CCN(Cc4cc(-c5ccc(F)cc5)no4)CC3)c(F)c2)C(=O)O1	-0.49	3.12 µg/mL (≈ 6.1 µM)
CC(=O)NC[C@H]1CN(c2ccc(N3CCN(Cc4cc(-c5ccc(C)cc5)no4)CC3)c(F)c2)C(=O)O1	-1.1	12.5 µg/mL (≈ 24.6 µM)
CC(=O)NC[C@H]1CN(c2ccc(N3CCN(C(=O)c4cc(-c5cccs5)no4)CC3)c(F)c2)C(=O)O1	-0.11	0.78 µg/mL (≈ 1.52 µM)
COc1cccc(-c2cc(CN3CCN(c4ccc(N5C[C@H](CNC(C)=O)OC5=O)cc4F)CC3)on2)c1	-0.49	3.12 µg/mL (≈ 5.96 µM)
CC(=O)NC[C@H]1CN(c2ccc(N3CCN(C(=O)c4cc(O)no4)CC3)c(F)c2)C(=O)O1	-1.7	50 µg/mL (≈ 112 µM)
CC(=O)NC[C@H]1CN(c2ccc(N3CCN(C(=O)c4cc(COC(N)=O)no4)CC3)c(F)c2)C(=O)O1	-0.19	1.56 µg/mL (≈ 3.09 µM)
CC(=O)NC[C@H]1CN(c2ccc(N3CCN(Cc4cc(-c5ccc(Oc6ccccc6)cc5)no4)CC3)c(F)c2)C(=O)O1	-2	100 µg/mL (≈ 171 µM)
COc1ccc(-c2cc(CN3CCN(c4ccc(N5C[C@H](CNC(C)=O)OC5=O)cc4F)CC3)on2)cc1OC	-0.49	3.12 µg/mL (≈ 5.64 µM)
CC(=O)NC[C@H]1CN(c2ccc(N3CCN(Cc4cc(/C=C/c5ccccc5)no4)CC3)c(F)c2)C(=O)O1	-1.4	25 µg/mL (≈ 48.1 µM)
CC(=O)NC[C@H]1CN(c2ccc(N3CCN(Cc4cc(-c5ccc(Cl)cc5)no4)CC3)c(F)c2)C(=O)O1	-1.7	50 µg/mL (≈ 94.7 µM)

SMILES	Log 1/MIC	MIC
CC(=O)NC[C@H]1CN(c2ccc(N3CCN(C(=O)c4cc(C(F)(F)F)no4)CC3)c(F)c2)C(=O)O1	-0.49	3.12 µg/mL (≈ 6.25 µM)
CC(=O)NC[C@H]1CN(c2ccc(N3CCN(C(=O)c4cc(C(=O)O)no4)CC3)c(F)c2)C(=O)O1	-2	100 µg/mL (≈ 210 µM)
CC(=O)NC[C@H]1CN(c2ccc(N3CCN(C(=O)c4cc(-c5csnn5)no4)CC3)c(F)c2)C(=O)O1	0.11	0.78 µg/mL (≈ 1.51 µM)
COc1cc(C(=O)N2CCN(c3ccc(N4C[C@H](CNC(C)=O)OC4=O)cc3F)CC2)on1	-0.19	1.56 µg/mL (≈ 3.38 µM)
CC(=O)NC[C@H]1CN(c2ccc(N3CCN(C(=O)CO)CC3)c(F)c2)C(=O)O1 [EPEREZOLID]	-0.19	1.56 µg/mL (≈ 3.96 µM)
CC(=O)NC[C@H]1CN(c2ccc(N3CCN(C(=O)c4cc(Cl)no4)CC3)c(F)c2)C(=O)O1	0.11	0.78 µg/mL (≈ 1.67 µM)
CC(=O)NC[C@H]1CN(c2ccc(N3CCN(C(=O)c4cc(C(=O)N(C)C)no4)CC3)c(F)c2)C(=O)O1	-0.49	3.12 µg/mL (≈ 6.21 µM)
CC(=O)NC[C@H]1CN(c2ccc(N3CCN(C(=O)c4cc(C#N)no4)CC3)c(F)c2)C(=O)O1	-0.19	1.56 µg/mL (≈ 3.42 µM)
CC(=O)NC[C@H]1CN(c2ccc(N3CCN(C(=O)c4cccs4)CC3)c(F)c2)C(=O)O1	-0.19	1.56 µg/mL (≈ 3.49 µM)
CC(=O)NC[C@H]1CN(c2ccc(N3CCN(Cc4cc(-c5ccccn5)no4)CC3)c(F)c2)C(=O)O1	-0.19	1.56 µg/mL (≈ 3.15 µM)
CC(=O)NC[C@H]1CN(c2ccc(N3CCN(C(=O)c4cc(C)no4)CC3)c(F)c2)C(=O)O1	-0.19	1.56 µg/mL (≈ 3.5 µM)
CC(=O)NC[C@H]1CN(c2ccc(N3CCN(C(=O)c4cc(C(N)=O)no4)CC3)c(F)c2)C(=O)O1	-0.19	1.56 µg/mL (≈ 3.29 µM)
CC(=O)NC[C@H]1CN(c2ccc(N3CCN(C(=O)c4cc(Br)no4)CC3)c(F)c2)C(=O)O1	0.11	0.78 µg/mL (≈ 1.53 µM)
CC(=O)NC[C@H]1CN(c2ccc(N3CCN(C(=O)c4nccs4)CC3)c(F)c2)C(=O)O1	-0.19	1.56 µg/mL (≈ 3.49 µM)
CC(=O)NC[C@H]1CN(c2ccc(N3CCN(C(=O)c4cc(-c5cnsn5)no4)CC3)c(F)c2)C(=O)O1	-0.19	1.56 µg/mL (≈ 3.03 µM)
CCCCCCCCCCS(=O)(=O)N[C@H](CCCCCC)COP(=O)(O)OCCO	-0.19	1.56 µg/mL (≈ 3.29 µM)
